The values below come from patent publication US9981972B2, “N-hydroxy bicyclic hydantoin carbamates as tools for identification of serine hydrolase targets” (ABIDE THERAPEUTICS, INC., priority 2014, dated 2018).

In experiment [1] the target is T1, ABHD4 (Homo sapiens, UniProt Q8TB40).
T1 sequence (Q8TB40 1-342): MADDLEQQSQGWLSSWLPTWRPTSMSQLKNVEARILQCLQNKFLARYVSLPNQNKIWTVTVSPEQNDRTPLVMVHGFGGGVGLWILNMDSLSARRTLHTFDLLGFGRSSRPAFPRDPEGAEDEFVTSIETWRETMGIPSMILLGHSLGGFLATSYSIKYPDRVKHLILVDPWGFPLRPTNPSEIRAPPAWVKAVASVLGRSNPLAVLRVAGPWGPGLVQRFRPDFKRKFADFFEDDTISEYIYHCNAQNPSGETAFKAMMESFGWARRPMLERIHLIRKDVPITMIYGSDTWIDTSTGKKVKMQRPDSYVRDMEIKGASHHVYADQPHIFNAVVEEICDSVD
The experiment can be described thus: Gel-based competitive ABPP, recombinant enzyme in transfected HEK293T cell lysates. The experiment is classed as biochemical. Details: myc-his; expressed in transfected cells; host or cells: HEK293T, transient transfection, pcDNA3.1/myc-his; lysate used in vitro. As to conditions: recombinant. The gist of the method:
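Human ABHD4 was expressed by transient transfection in HEK293T cells, and lysates were combined with those expressing ABHD3. Inhibition was monitored by gel-based competitive activity-based protein profiling, with compound applied either in situ to cells or in vitro to lysates.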

The target in experiment [2] is T1, ABHD4. The experiment can be described thus: ABPP-SILAC, PC3 cells treated in situ. Format: cell-based. The arrangement: endogenous in cells; host or cells: PC3. As to conditions: 4 h in situ; for inhibition of ABHD4 in PC3 cells: FP-biotin. The procedure: In situ inhibitor treatments of human cell lines were performed as described previously (Hsu et al., J Med Chem 56, 8270-8279, 2012). Briefly, PC3 or transfected HEK293T cells were grown to confluency in serum-containing media (RPMI or DMEM, respectively). The culture media was then removed and replaced with fresh media containing DMSO or inhibitor at the desired concentration and incubated for 4 hours in a tissue culture incubator (37° C., 5% CO2). Cells were then washed with PBS, harvested, washed with PBS once more, and lysed with a probe sonicator.
The activity and selectivity of dual ABHD3/4 and ABHD4-preferring inhibitors in PC3 cells by ABPP-SILAC was assessed. Isotopically heavy and light PC3 cells were treated in situ with inhibitor (Compound 37 (1 μM) or Compound 38 (0.5 μM)) or DMSO for 4 h and then lysed and processed for ABPP-SILAC analysis.
To evaluate the broader selectivity of Compound 26 and Compound 34 across the SH class, heavy and light isotopically-labeled PC3 cells were treated with inhibitor [Compound 34 (1 μM); or Compound 26 (1 or 0.1 μM); 4 h) and DMSO, respectively, followed by ABPP-SILAC analysis with either the FP-biotin probe or the Compound 39 probe. […] Conversely, Compound 34 inhibited >90% of ABHD4 activity, as measured with either the FP-biotin probe or the Compound 39 probe, and cross-reacted with four additional targets—ABHD6, PAFAH2, PLA2G7, and PLA2G15.

For experiment [3], the target named is T2, PPT1 (Homo sapiens, UniProt P50897).
T2 sequence (P50897 28-306): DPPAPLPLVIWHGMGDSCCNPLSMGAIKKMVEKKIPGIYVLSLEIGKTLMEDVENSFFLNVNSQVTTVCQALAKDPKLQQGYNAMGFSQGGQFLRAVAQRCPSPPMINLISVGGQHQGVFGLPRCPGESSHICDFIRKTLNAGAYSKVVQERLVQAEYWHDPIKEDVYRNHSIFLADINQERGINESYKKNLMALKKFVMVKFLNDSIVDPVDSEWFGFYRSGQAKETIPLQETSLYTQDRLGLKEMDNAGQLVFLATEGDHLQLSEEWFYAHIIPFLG
The experiment can be described thus: PPT1 substrate assay in vitro, hPPT1-transfected HEK293T cell lysates. The experiment is classed as biochemical. Details: expressed in transfected cells; host or cells: HEK293T. As to conditions: for activity against PPT1 in situ and in vitro: in words, figures in the 9th table. The protocol:
PPT1 activity was assessed in vitro using a substrate assay adapted from previous studies (van Diggelen et al., Molecular genetics and metabolism 66, 240-244, 1999). Lysates from HEK293T cells transfected with an empty vector, or human PPT1 under a CMV promoter were adjusted to 1 mg/ml in PBS (25 μl), and then combined 1:1 with Mcllvain's phosphate/citrate buffer containing 0.375% (v/v) Triton-X 100 and 15 mM DTT (pH 5.0). This sample was pre-treated with inhibitor or DMSO for 30 minutes at 37° C., and 10 μl (5 μg protein) was used in the substrate assay as follows: Samples were diluted in a black 96-well plate (half-area) with 20 μl McIlvain's phosphate/citrate buffer (pH 5.0) containing 0.375% TX-100 and 15 mM DTT, as well as 0.64 mM MU-6S-Palm-PD-Glc and 0.1 U sweet almond glucosidase (Sigma). The reactions were incubated at 37° C. for 1 hour, quenched with 120 μl sodium bicarbonate buffer (pH 10.0), and hydrolysis by 4-MU fluorescence measured by excitement at […] and emission intensity at […]. 16 μg protein was used for analysis of native PC3 cells.
Compound 26 was then tested to see if it inhibited PPT1 activity using a substrate assay. Endogenous substrates for PPT1 remain poorly characterized, but this enzyme was assayed with a fluorogenic substrate 4-methylumbelliferyl-6-thio-palmitate-βD-glucopyranoside (MU-6S-Palm-βD-Glc). In this assay, PPT1 hydrolyzes the substrate's palmitoyl thioester bond, and exogenous sweet almond β-glucosidase deglycosylates and frees the fluorophore, 4-methylumbelliferone (4-MU), which is measured to assess PPT1 activity.

The mark [4] stands for this setting: transfected HEK293T lysates, read-out: hABHD4 in vitro potency (IC50).
Where [5] appears, read: cell lysates, pH 5.0, MU-6S-Palm-βD-Glc substrate, 95% confidence intervals in parentheses, read-out: IC50 for inhibition of human PPT1, in vitro (substrate).

Read-outs that look alike come from different tables or passages of the source.

In the case of `COc1ccc(N2CCN(C(=O)ON3C(=O)C4CN(Cc5ccc(Oc6ccccc6)cc5)CCN4C3=O)CC2)cc1` (stereo not shown) [Compound 37, 1,3-dioxo-7-(4-phenoxybenzyl)hexahydroimidazo[1,5-a]pyrazin-2(3H)-yl 4-(4-methoxyphenyl)piperazine-1-carboxylate], the “preference ABHD4 over ABHD3” value in experiment [1] (combined HEK293T lysates, gel-based ABPP) was “preferentially inhibited ABHD4 over ABHD3”. Moreover, in experiment [1] (setting [4]), the IC50 worked out at 0.1 µM. Besides, in experiment [2] (1 μM), the “inhibition of ABHD4 in PC3 cells” value is “completely inhibited”.
In the case of `O=C(ON1C(=O)C2CN(Cc3ccc(Oc4ccccc4)cc3)CCN2C1=O)N1CCC(c2ccccc2)CC1` (stereo not shown) [Compound 38, 1,3-dioxo-7-(4-phenoxybenzyl)hexahydroimidazo[1,5-a]pyrazin-2(3H)-yl 4-phenylpiperidine-1-carboxylate], the concentration for half-maximal inhibition (IC50) in experiment [1] (combined HEK293T lysates, gel-based ABPP, read-out: ABHD4 IC50) amounted to 0.03 µM. Also, the “inhibition of ABHD4 in PC3 cells” value in experiment [2] (0.5 μM) was “inhibit both ABHD3 and ABHD4”.
As to `COc1ccc(N2CCN(C(=O)ON3C(=O)[C@@H]4CN(CC5CCN(Cc6ccccc6)CC5)CCN4C3=O)CC2)cc1` [Compound 42, (S)-7-((1-benzylpiperidin-4-yl)methyl)-1,3-dioxo-hexahydroimidazo[1,5-a]pyrazin-2(3H)-yl 4-(4-methoxyphenyl)piperazine-1-carboxylate], in experiment [3] (human PPT1, in vitro, method not stated at Table 5, read-out: hPPT1 in vitro potency (IC50)), the IC50 was determined as 3.97 µM.
Take `COc1ccc(N2CCN(C(=O)ON3C(=O)C4CN(CC5CCN(Cc6ccccc6)CC5)CCN4C3=O)CC2)cc1` (stereo not shown) [Compound 26, 7-((1-benzylpiperidin-4-yl)methyl)-1,3-dioxohexahydroimidazo[1,5-a]pyrazin-2(3H)-yl 4-(4-methoxyphenyl)piperazine-1-carboxylate]: in experiment [3] (transfected lysates, pH 5.0, MU-6S-Palm-βD-Glc, read-out: PPT1 IC50, substrate assay), the IC50 is 6.5 µM.
For the molecule `O=C(ON1C(=O)C2CN(C(=O)N3CCOCC3)CCN2C1=O)N1CCC(CCc2ccc(Cl)cc2)CC1` (stereo not shown) [Compound 1, 7-(morpholine-4-carbonyl)-1,3-dioxohexahydroimidazo[1,5-a]pyrazin-2(3H)-yl 4-(4-chloro-phenethyl)piperidine-1-carboxylate], the IC50 in experiment [3] (setting [5]) came to 15 µM. Moreover, the “activity against PPT1 in situ and in vitro” value in experiment [3] is on record as “did, however, inhibit PPT1 activity”.
Turning to `O=C(ON1C(=O)C2CN(Cc3ccc(Oc4ccccc4)cc3)CCN2C1=O)N1CCOCC1` (stereo not shown) [Compound 34, 1,3-dioxo-7-(4-phenoxybenzyl)hexahydroimidazo[1,5-a]pyrazin-2(3H)-yl morpholine-4-carboxylate], the IC50 in experiment [1] (setting [4]) was about 1 µM; in experiment [3] (setting [5]), over 50 µM. Further, the inhibition at 1 µM in experiment [2] (PC-3, 1 μM, FP-biotin or Compound 39 probe) is over 90%. In experiment [3], the “activity against PPT1 in situ and in vitro” value is “limited activity against PPT1”.
